Patent publication US7888383B2, “Organic compounds” (Novartis AG, priority 2005, dated 2011)

Assays:
[1] = biological target: T1, CRTh2 receptor in CHO.K1-CRTh2 cells (Homo sapiens, UniProt Q9Y5Y4); test: CRTH2 cAMP functional assay; assay type: cell-based; details: inhibition of PGD2-mediated attenuation of forskolin-induced cAMP accumulation in CHO.K1-CRTh2 cells
T1 construct: expressed in transfected cells; host or cells: CHO.K1-CRTh2 cells (whole cells)
T1 sequence (Q9Y5Y4 1-395): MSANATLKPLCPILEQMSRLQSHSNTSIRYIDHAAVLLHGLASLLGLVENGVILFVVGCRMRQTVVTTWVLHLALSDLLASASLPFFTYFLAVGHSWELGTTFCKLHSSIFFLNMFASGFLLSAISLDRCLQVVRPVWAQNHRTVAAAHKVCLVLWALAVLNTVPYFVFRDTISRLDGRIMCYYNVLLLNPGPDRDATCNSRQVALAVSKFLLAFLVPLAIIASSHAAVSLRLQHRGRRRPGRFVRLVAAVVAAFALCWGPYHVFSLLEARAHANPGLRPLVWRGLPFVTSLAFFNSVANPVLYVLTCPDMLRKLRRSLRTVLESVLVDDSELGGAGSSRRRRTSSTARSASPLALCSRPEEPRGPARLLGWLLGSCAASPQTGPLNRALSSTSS
Protocol: Ki (dissocation constant for the inhibition) values for the CRTh2 modulators are reported. Ki values are determined using Sigma Plot™ software, using the Cheng-Prussoff equation. Ki=IC50/1+[S]/Kd where S is the concentration of radioligand and Kd is the dissociation constant. CRTH2 cAMP Functional Assay Protocol
This assay is conducted in CHO.K1-CRTh2 cells. cAMP is generated in the cell by stimulating cells with 5 μM forskolin, an adenylate cyclase activator. PGD2 is added to activate the CRTh2 receptor which results in the attenuation of the forskolin-induced cAMP accumulation. Potential CRTh2 antagonists are tested for their ability to inhibit the PGD2-mediated attenuation of the forskolin-induced cAMP accumulation in CHO.K1-CRTh2 cells.
For each concentration value on the dose-response curve, test compounds are prepared in assay stimulation buffer (HBSS, 5 mM HEPES, 10 μM IBMX±0.1% human serum albumin) containing DMSO (3% vol/vol) and 5 μL/well is added to an assay plate (384 well white optiplate).
CHO.K1-CRTh2 cultured in tissue culture flasks are washed with PBS and harvested with dissociation buffer. Cells are washed with PBS and resuspended in stimulation buffer to a concentration of 0.4×10^6/mL and added to the assay plate (10 μL/well).
The assay plate is incubated at room temperature on a shaker for 15 minutes.
A mix of agonist (10 nM Prostaglandin D2) and 5 μM forskolin is prepared in assay stimulation buffer and added to the assay plate (5 μL/well).
In addition, a cAMP standard is serially diluted in assay stimulation buffer and added to separate empty wells on the assay plate (20 μL/well). The cAMP standard allows for the quantification of cAMP generated in CHO.K1-CRTH2 cells.
The assay plate is incubated at room temperature on a shaker for 60 minutes. […]
The assay plate is sealed with Topseal-S™ and incubated in the dark at room temperature on a shaker for 45 minutes. The plate is then counted using a Packard Fusion™ instrument. […]

human CRTh2 = biological target: T2, human CRTh2 (Homo sapiens, UniProt Q9Y5Y4); test: CRTh2 [3H]-PGD2 binding assay (filtration protocol; called SPA binding assay); details: competition with [3H]-PGD2 (2.5 nM), CHO.K1-CRTh2 membranes
T2 construct: expressed in transfected cells; host or cells: CHO.K1 (Chinese Hamster Ovary) cells expressing human CRTh2; membrane preparation
T2 sequence (Q9Y5Y4 1-395): T1 sequence (Q9Y5Y4 1-395)
Protocol: Filtration Binding Assay Protocol
The binding of CRTh2 modulators is determined using membranes prepared from human CRTh2-expressing Chinese Hamster Ovary cells (CHO.K1-CRTh2). To produce cell membranes CHO.K1-CRTh2 cells cultured in roller bottles are harvested using cell dissociation buffer (Invitrogen). The cells are pelleted by centrifugation (167 g, 5 min). The cell pellet is incubated in hypotonic buffer (15 mM Tris-OH, 2 mM MgCl2, 0.3 mM EDTA, 1 mM EGTA, 1× Complete™ tablet) at 4° C. for 30 min. At 4° C. cells are homogenized using a Polytron® (IKA Ultra Turrax T25) for 5 bursts of 1 second. The homogenate is centrifuged (Beckman Optima™ TL Ultracentrifuge, 48000 g, 30 min at 4° C.). The supernatant is discarded and the membrane pellet resuspended in homogenisation buffer (75 mM Tris-OH, 12.5 mM MgCl2, 0.3 mM EDTA, 1 mM EGTA, 250 mM Sucrose, 1× Complete™ tablet. Membrane preparations are aliquoted and stored at […]. The protein content is estimated using Bradford Protein Assay Dye (Bio Rad).
The binding of [^3H]-PGD2 (157 Ci/mmol) to CHO.K1-CRTh2 membranes is determined in the absence (total binding) and presence (non-specific binding) of unlabelled PGD2 (1 μM). Subtraction of the cpm (counts per minute) of [^3H]-PGD2 binding in presence of excess unlabelled PGD2 from that observed in the absence of excess unlabelled PGD2 is defined as specific binding. Active CRTh2 modulators are able to compete with [^3H]-PGD2 for binding to the CRTh2 receptor and are identified in a decrease in the number of cpm bound. […]
The plates are incubated at room temperature on a shaker for 1 hour, and then harvested (Tomtec Harvester 9600) onto GF/C filter plates using wash buffer (10 mM HEPES-KOH, pH 7.4). […] Plates are then counted using a Packard Top Count instrument, Plates are then read on the Packard Topcount with the 3H Scintillation program (1 min per well).
Ki (dissocation constant for the inhibition) values for the CRTh2 modulators are reported. Ki values are determined using Sigma Plot™ software, using the Cheng-Prussoff equation. […]

IC50 [1]	Ki (human CRTh2)	Structure (SMILES)
73 nM	8 nM	Cc1c(CC(=O)O)c2cc(F)ccc2n1Cc1ccc(S(C)(=O)=O)cc1C(F)(F)F [Example 2, [5-fluoro-(4-methanesulfonyl-2-trifluoromethyl-benzyl)-2-methyl-1H-indol-3-yl]-acetic acid]
33 nM	52 nM	Cc1c(CC(=O)O)c2cc(F)ccc2n1Cc1ccc(S(=O)(=O)N(C)C2CCCCC2)cc1 [Example 4, {1-[4-(Cyclohexyl-methyl-sulfamoyl)-benzyl]-5-fluoro-2-methyl-1H-indol-3-yl}-acetic acid]
99 nM	36 nM	Cc1c(CC(=O)O)c2cc(F)ccc2n1Cc1ccc(S(=O)(=O)N2CCCC2)cc1 [Example 5, {5-Fluoro-2-methyl-1-[4-(pyrrolidine-1-sulfonyl)-benzyl]-1H-indol-3-yl}-acetic acid]
